Data on 6 compounds can be found in patent EP4596574A1, “GLP-1/GCG/GIP TRIPLE-RECEPTOR AGONIST AND USE THEREOF” (Sunshine Lake Pharma Co., Ltd., priority 2022, dated 2024).

Structures are written as SMILES. pEC50: −log10 of the molar value. Starred links: 1 amine or outer side, 2 acyl side, 3 side chain; linkers in the order of their positions; H or OH if unused. Non-standard residues stand in square brackets, D forms with d. Residues, ends and D or L forms follow the SMILES beside them. Groups on a side chain read outwards from the residue. *: point of attachment. C20 diacid = O=C(O)CCCCCCCCCCCCCCCCCCC(=O)*; C18 diacid = O=C(O)CCCCCCCCCCCCCCCCC(=O)*; αMePhe(2-F) = C[C@](N)(Cc1ccccc1F)C(=O)O; γGlu = O=C(O)[C@H](CCC(=O)[*:2])N[*:1]; AEEA = NCCOCCOCC(=O)O; Aib = CC(C)(N)C(=O)O

Assay type in all cases: cell-based
One assay deals with T1, GLP-1R (Homo sapiens, UniProt P43220).
T1 construct: expressed in transfected cells; host or cells: HEK293 (HEK293-GLP-1R)
T1 sequence (P43220 24-463, species assumed): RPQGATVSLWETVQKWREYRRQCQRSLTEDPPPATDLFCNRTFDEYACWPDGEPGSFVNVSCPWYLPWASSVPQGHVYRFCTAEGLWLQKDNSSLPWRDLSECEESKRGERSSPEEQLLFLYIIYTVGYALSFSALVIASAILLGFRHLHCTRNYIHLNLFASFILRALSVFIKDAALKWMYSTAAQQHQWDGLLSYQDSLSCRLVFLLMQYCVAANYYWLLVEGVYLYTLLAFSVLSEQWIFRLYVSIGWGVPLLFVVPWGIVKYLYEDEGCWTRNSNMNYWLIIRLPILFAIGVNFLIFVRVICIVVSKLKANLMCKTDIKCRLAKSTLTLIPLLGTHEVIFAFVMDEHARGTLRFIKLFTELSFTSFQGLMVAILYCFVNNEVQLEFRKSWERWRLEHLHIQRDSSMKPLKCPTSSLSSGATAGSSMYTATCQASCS
Put plainly: In vitro cell activity, cAMP production in HEK293 cells expressing GLP-1R. The settings on record: HEK293-GLP-1R cells, cAMP; read-out: GLP-1R (EC50). The method, boiled down:
(§1)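 Cells were plated at 4×10^5 cells/mL, and detection reagents (cAMP-d2, anti-cAMP cryptate, 1:1) were incubated 1 h at room temperature in the dark or overnight at 4 °C.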
In general terms: Cyclic AMP is a second messenger, typically raised through Gs and lowered through Gi signalling.

For another assay, the target named is T2, GCGR (Homo sapiens, UniProt P47871).
T2 construct: expressed in transfected cells; host or cells: HEK293 (HEK293-GCGR)
T2 sequence (P47871 26-477, species assumed): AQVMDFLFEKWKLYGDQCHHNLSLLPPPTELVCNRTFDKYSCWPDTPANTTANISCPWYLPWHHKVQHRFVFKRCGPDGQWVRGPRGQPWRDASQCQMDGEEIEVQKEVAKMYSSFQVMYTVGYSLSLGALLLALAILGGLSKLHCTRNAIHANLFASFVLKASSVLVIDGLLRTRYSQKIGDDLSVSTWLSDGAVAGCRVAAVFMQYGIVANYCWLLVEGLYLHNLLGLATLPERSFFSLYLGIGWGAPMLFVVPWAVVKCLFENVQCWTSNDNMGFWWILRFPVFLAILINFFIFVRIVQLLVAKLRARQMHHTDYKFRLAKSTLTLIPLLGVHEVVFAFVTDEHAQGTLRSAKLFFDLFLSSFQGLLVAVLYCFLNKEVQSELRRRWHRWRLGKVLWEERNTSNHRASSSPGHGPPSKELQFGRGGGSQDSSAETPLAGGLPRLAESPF
Put plainly: In vitro cell activity, cAMP production in HEK293 cells expressing GCGR. The following applies: HEK293-GCGR cells, cAMP; read-out: GCGR (EC50). Summed up:
as §1

Another assay deals with T3, GIPR (Homo sapiens, UniProt P48546).
T3 construct: expressed in transfected cells; host or cells: HEK293 (HEK293-GIPR)
T3 sequence (P48546 22-466): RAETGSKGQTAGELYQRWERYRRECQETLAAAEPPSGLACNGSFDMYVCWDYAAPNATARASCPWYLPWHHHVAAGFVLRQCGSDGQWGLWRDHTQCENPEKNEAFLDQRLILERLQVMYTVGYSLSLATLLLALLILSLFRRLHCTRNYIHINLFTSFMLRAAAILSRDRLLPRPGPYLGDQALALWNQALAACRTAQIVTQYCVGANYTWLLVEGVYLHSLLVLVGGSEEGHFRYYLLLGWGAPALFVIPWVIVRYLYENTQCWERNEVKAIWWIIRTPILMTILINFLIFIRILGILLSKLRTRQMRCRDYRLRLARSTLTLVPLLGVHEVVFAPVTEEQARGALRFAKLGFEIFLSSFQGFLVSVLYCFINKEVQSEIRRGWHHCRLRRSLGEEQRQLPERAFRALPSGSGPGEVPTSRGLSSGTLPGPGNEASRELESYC
Put plainly: In vitro cell activity, cAMP production in HEK293 cells expressing GIPR. The settings on record: HEK293-GIPR cells, cAMP; read-out: GIPR (EC50). Summed up: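 cAMP accumulation is quantified by homogeneous TR-FRET (cAMP-d2 plus anti-cAMP cryptate) in GIPR-expressing HEK293 cells seeded from a 4×10^5 cells/mL suspension and treated with compound. The signal ratio is plotted against concentration and fitted to a four-parameter curve to give EC50.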

The pEC50 is the EC50 on a negative log10 scale, so that one unit is a factor of ten. As to `CC[C@H](C)[C@H](NC(=O)[C@H](CO)NC(=O)[C@H](Cc1ccc(O)cc1)NC(=O)[C@H](CC(=O)O)NC(=O)[C@H](CO)NC(=O)[C@@H](NC(=O)[C@](C)(Cc1ccccc1F)NC(=O)[C@@H](NC(=O)CNC(=O)[C@H](CCC(N)=O)NC(=O)C(C)(C)NC(=O)[C@@H](N)Cc1ccc(O)cc1)[C@@H](C)O)[C@@H](C)O)C(=O)N[C@@H](CC(C)C)C(=O)N[C@@H](CC(C)C)C(=O)N[C@@H](CC(=O)O)C(=O)N[C@@H](CCC(=O)O)C(=O)N[C@@H](CCCCNC(=O)COCCOCCNC(=O)CC[C@H](NC(=O)CCCCCCCCCCCCCCCCC(=O)O)C(=O)O)C(=O)N[C@@H](CCCNC(=N)N)C(=O)N[C@@H](CCC(N)=O)C(=O)N[C@@H](CCCNC(=N)N)C(=O)N[C@@H](C)C(=O)N[C@@H](Cc1ccccc1)C(=O)N[C@H](C(=O)N[C@@H](CCC(=O)O)C(=O)N[C@@H](Cc1ccc(O)cc1)C(=O)N[C@@H](CC(C)C)C(=O)N[C@@H](CC(C)C)C(=O)N[C@@H](C)C(=O)NCC(=O)NCC(=O)N1CCC[C@H]1C(=O)N[C@@H](CO)C(=O)N[C@@H](CO)C(=O)NCC(=O)N[C@@H](C)C(=O)N1CCC[C@H]1C(=O)N1CCC[C@H]1C(=O)N1CCC[C@H]1C(=O)N[C@@H](CO)C(=O)O)C(C)C` [HEC-PT135], the figures for the pEC50 at GLP-1R, at GCGR and on GIPR were 9.72, 9.04 and 9.55, respectively.
`CC[C@H](C)[C@H](NC(=O)[C@H](CCCCN)NC(=O)[C@H](CC(=O)O)NC(=O)[C@H](CCCCNC(=O)COCCOCCNC(=O)CC[C@H](NC(=O)CCCCCCCCCCCCCCCCCCC(=O)O)C(=O)O)NC(=O)[C@H](CC(C)C)NC(=O)[C@@H](NC(=O)[C@H](CO)NC(=O)[C@H](Cc1ccc(O)cc1)NC(=O)[C@H](CC(=O)O)NC(=O)[C@H](CO)NC(=O)[C@@H](NC(=O)[C@](C)(Cc1ccccc1F)NC(=O)[C@@H](NC(=O)CNC(=O)[C@H](CCC(N)=O)NC(=O)C(C)(C)NC(=O)[C@@H](N)Cc1ccc(O)cc1)[C@@H](C)O)[C@@H](C)O)[C@@H](C)CC)C(=O)N[C@@H](C)C(=O)N[C@@H](CCC(N)=O)C(=O)NC(C)(C)C(=O)N[C@@H](C)C(=O)N[C@@H](Cc1ccccc1)C(=O)N[C@H](C(=O)N[C@@H](CCC(=O)O)C(=O)N[C@@H](Cc1ccc(O)cc1)C(=O)N[C@@H](CC(C)C)C(=O)N[C@@H](CC(C)C)C(=O)N[C@@H](C)C(=O)NCC(=O)NCC(=O)N1CCC[C@H]1C(=O)N[C@@H](CO)C(=O)N[C@@H](CO)C(=O)NCC(=O)N[C@@H](C)C(=O)N1CCC[C@H]1C(=O)N1CCC[C@H]1C(=O)N1CCC[C@H]1C(=O)N[C@@H](CO)C(N)=O)[C@@H](C)CC` [HEC-PT138] (H-Y[Aib]QGT[αMePhe(2-F)]TSDYSILK([AEEA-γGlu-C20 diacid])DKIAQ[Aib]AFIEYLLAGGPSSGAPPPS-NH2): the figures for the pEC50 at GLP-1R, on GCGR and on GIPR were 9.57, 9.76 and 10.19, respectively.
In the same order, the values of `CC[C@H](C)[C@H](NC(=O)[C@H](CCCCN)NC(=O)[C@H](CC(=O)O)NC(=O)[C@H](CCCCNC(=O)COCCOCCNC(=O)CC[C@H](NC(=O)CCCCCCCCCCCCCCCCC(=O)O)C(=O)O)NC(=O)[C@H](CC(C)C)NC(=O)[C@@H](NC(=O)[C@H](CO)NC(=O)[C@H](Cc1ccc(O)cc1)NC(=O)[C@H](CC(=O)O)NC(=O)[C@H](CO)NC(=O)[C@@H](NC(=O)[C@](C)(Cc1ccccc1F)NC(=O)[C@@H](NC(=O)CNC(=O)[C@H](CCC(N)=O)NC(=O)C(C)(C)NC(=O)[C@@H](N)Cc1ccc(O)cc1)[C@@H](C)O)[C@@H](C)O)[C@@H](C)CC)C(=O)N[C@@H](C)C(=O)N[C@@H](CCC(N)=O)C(=O)NC(C)(C)C(=O)N[C@@H](C)C(=O)N[C@@H](Cc1ccccc1)C(=O)N[C@H](C(=O)N[C@@H](CCC(=O)O)C(=O)N[C@@H](Cc1ccc(O)cc1)C(=O)N[C@@H](CC(C)C)C(=O)N[C@@H](CC(C)C)C(=O)N[C@@H](C)C(=O)NCC(=O)NCC(=O)N1CCC[C@H]1C(=O)N[C@@H](CO)C(=O)N[C@@H](CO)C(=O)NCC(=O)N[C@@H](C)C(=O)N1CCC[C@H]1C(=O)N1CCC[C@H]1C(=O)N1CCC[C@H]1C(=O)N[C@@H](CO)C(N)=O)[C@@H](C)CC` [HEC-PT139] (H-Y[Aib]QGT[αMePhe(2-F)]TSDYSILK([AEEA-γGlu-C18 diacid])DKIAQ[Aib]AFIEYLLAGGPSSGAPPPS-NH2) are 9.80, 10.09 and 10.44.
In the case of `CC[C@H](C)[C@H](NC(=O)[C@H](CCCCN)NC(=O)[C@H](CC(=O)O)NC(=O)[C@H](CCCCNC(=O)COCCOCCNC(=O)CC[C@H](NC(=O)CCCCCCCCCCCCCCCCC(=O)O)C(=O)O)NC(=O)[C@H](CC(C)C)NC(=O)[C@@H](NC(=O)[C@H](CO)NC(=O)[C@H](Cc1ccc(O)cc1)NC(=O)[C@H](CC(=O)O)NC(=O)[C@H](CO)NC(=O)[C@@H](NC(=O)[C@](C)(Cc1ccccc1F)NC(=O)[C@@H](NC(=O)CNC(=O)[C@H](CCC(N)=O)NC(=O)C(C)(C)NC(=O)[C@@H](N)Cc1ccc(O)cc1)[C@@H](C)O)[C@@H](C)O)[C@@H](C)CC)C(=O)N[C@@H](C)C(=O)N[C@@H](CCC(N)=O)C(=O)N[C@@H](CCCCN)C(=O)N[C@@H](C)C(=O)N[C@@H](Cc1ccccc1)C(=O)N[C@H](C(=O)N[C@@H](CCC(=O)O)C(=O)N[C@@H](Cc1ccc(O)cc1)C(=O)N[C@@H](CC(C)C)C(=O)N[C@@H](CC(C)C)C(=O)N[C@@H](C)C(=O)NCC(=O)NCC(=O)N1CCC[C@H]1C(=O)N[C@@H](CO)C(=O)N[C@@H](CO)C(=O)NCC(=O)N[C@@H](C)C(=O)N1CCC[C@H]1C(=O)N1CCC[C@H]1C(=O)N1CCC[C@H]1C(=O)N[C@@H](CO)C(N)=O)[C@@H](C)CC` [HEC-PT140] (H-Y[Aib]QGT[αMePhe(2-F)]TSDYSILK([AEEA-γGlu-C18 diacid])DKIAQKAFIEYLLAGGPSSGAPPPS-NH2), the pEC50 on GLP-1R is 9.82; on GCGR it was 9.57; on GIPR it was 10.27.
Regarding `CC[C@H](C)[C@H](NC(=O)[C@H](CCCCN)NC(=O)[C@H](CC(=O)O)NC(=O)[C@H](CCCCNC(=O)COCCOCCNC(=O)CC[C@H](NC(=O)CCCCCCCCCCCCCCCCC(=O)O)C(=O)O)NC(=O)[C@H](CC(C)C)NC(=O)[C@@H](NC(=O)[C@H](CO)NC(=O)[C@H](Cc1ccc(O)cc1)NC(=O)[C@H](CC(=O)O)NC(=O)[C@H](CO)NC(=O)[C@@H](NC(=O)[C@](C)(Cc1ccccc1F)NC(=O)[C@@H](NC(=O)CNC(=O)[C@H](CCC(N)=O)NC(=O)C(C)(C)NC(=O)[C@@H](N)Cc1ccc(O)cc1)[C@@H](C)O)[C@@H](C)O)[C@@H](C)CC)C(=O)N[C@@H](C)C(=O)N[C@@H](CCC(N)=O)C(=O)N[C@@H](CCCCN)C(=O)N[C@@H](C)C(=O)N[C@@H](Cc1ccccc1)C(=O)N[C@H](C(=O)N[C@@H](CCC(=O)O)C(=O)N[C@@H](Cc1ccc(O)cc1)C(=O)N[C@@H](CC(C)C)C(=O)N[C@@H](CC(C)C)C(=O)N[C@@H](CCC(=O)O)C(=O)NCC(=O)NCC(=O)N1CCC[C@H]1C(=O)N[C@@H](CO)C(=O)N[C@@H](CO)C(=O)NCC(=O)N[C@@H](C)C(=O)N1CCC[C@H]1C(=O)N1CCC[C@H]1C(=O)N1CCC[C@H]1C(=O)N[C@@H](CO)C(N)=O)[C@@H](C)CC` [HEC-PT141] (H-Y[Aib]QGT[αMePhe(2-F)]TSDYSILK([AEEA-γGlu-C18 diacid])DKIAQKAFIEYLLEGGPSSGAPPPS-NH2), the values for the pEC50 at GLP-1R, on GCGR and at GIPR were 9.79, 9.67 and 10.02, respectively.
On to `CC[C@H](C)[C@H](NC(=O)[C@H](CCCNC(=N)N)NC(=O)[C@H](CC(=O)O)NC(=O)[C@H](CCCCNC(=O)COCCOCCNC(=O)CC[C@H](NC(=O)CCCCCCCCCCCCCCCCC(=O)O)C(=O)O)NC(=O)[C@H](CC(C)C)NC(=O)[C@@H](NC(=O)[C@H](CO)NC(=O)[C@H](Cc1ccc(O)cc1)NC(=O)[C@H](CC(=O)O)NC(=O)[C@H](CO)NC(=O)[C@@H](NC(=O)[C@](C)(Cc1ccccc1F)NC(=O)[C@@H](NC(=O)CNC(=O)[C@H](CCC(N)=O)NC(=O)C(C)(C)NC(=O)[C@@H](N)Cc1ccc(O)cc1)[C@@H](C)O)[C@@H](C)O)[C@@H](C)CC)C(=O)N[C@@H](C)C(=O)N[C@@H](CCC(N)=O)C(=O)N[C@@H](CCCNC(=N)N)C(=O)N[C@@H](C)C(=O)N[C@@H](Cc1ccccc1)C(=O)N[C@H](C(=O)N[C@@H](CCC(=O)O)C(=O)N[C@@H](Cc1ccc(O)cc1)C(=O)N[C@@H](CC(C)C)C(=O)N[C@@H](CC(C)C)C(=O)N[C@@H](CCC(=O)O)C(=O)NCC(=O)NCC(=O)N1CCC[C@H]1C(=O)N[C@@H](CO)C(=O)N[C@@H](CO)C(=O)NCC(=O)N[C@@H](C)C(=O)N1CCC[C@H]1C(=O)N1CCC[C@H]1C(=O)N1CCC[C@H]1C(=O)N[C@@H](CO)C(=O)O)[C@@H](C)CC` [HEC-PT142] (H-Y[Aib]QGT[αMePhe(2-F)]TSDYSILK([AEEA-γGlu-C18 diacid])DRIAQRAFIEYLLEGGPSSGAPPPS-OH), for which the pEC50 at GLP-1R is 9.80; on GCGR, 9.95; at GIPR it was 9.85.
